Results published in ChEMBL document CHEMBL5150076, “Discovery of Novel Orally Bioavailable Triazoles with Potent and Broad-Spectrum Antifungal Activity In Vitro and In Vivo” (J Med Chem, 2022).
In brackets after ≈: the same amount, converted by molar mass. Activity calls are given as the source filed them. The calls are words filed in the database; no cut-off is given here.

Key:
[1] = Induction of hemolysis in rabbit RBC at 16 ug/ml incubated for 1 hr; type: toxicity, cell-based, Oryctolagus cuniculus, Erythrocyte; conditions: red blood cells, at 16 µg/mL, read-out: Activity
[2] = Induction of hemolysis in rabbit RBC at 32 ug/ml incubated for 1 hr; type: toxicity, cell-based, Oryctolagus cuniculus, Erythrocyte; conditions: red blood cells, at 32 µg/mL, read-out: Activity
[3] = Cytotoxicity against HUVEC assessed as cell viability at 64 ug/ml incubated for 24 hrs by CCK-8 assay; type: toxicity, cell-based; conditions: human, HUVEC cells, at 64 µg/mL, read-out: Activity
[4] = Induction of hemolysis in rabbit RBC at 64 ug/ml incubated for 1 hr; type: toxicity, cell-based, Oryctolagus cuniculus, Erythrocyte; conditions: red blood cells, at 64 µg/mL, read-out: Activity
in vitro = conditions: human, Caco-2 cells; at 64 µg/mL
Candida albicans [5] = assay: Antifungal activity against Candida albicans 20#; type: functional
Nannizzia gypsea = assay: Antifungal activity against Microsporum gypseum; type: functional
Candida parapsilosis [6] = assay: Antifungal activity against Candida parapsilosis 90018; type: functional; conditions: Lodderomyces parapsilosis
Nakaseomyces glabratus [7] = assay: Antifungal activity against Candida glabrata 537; type: functional
Candida parapsilosis [8] = assay: Antifungal activity against Candida parapsilosis 660; type: functional; conditions: Lodderomyces parapsilosis
Trichophyton rubrum = assay: Antifungal activity against Trichophyton rubrum cmccftla; type: functional
Cryptococcus neoformans [9] = assay: Antifungal activity against Cryptococcus neoformans H99 infected in ICR mouse assessed as median survival time at 2 mg/kg, po qd infected with fungus for 2 hrs prior to compound addition for 7 days and measured for 20 days; type: functional; conditions: time 20 day
Nakaseomyces glabratus [10] = assay: Antifungal activity against Candida glabrata ATCC2001; type: functional
Candida albicans [11] = assay: Antifungal activity against Candida albicans SC5314 infected in ICR mouse assessed as median survival time at 0.5 mg/kg, po qd infected with fungus for 2 hrs prior to compound addition for 7 days and measured for 20 days; type: functional; conditions: time 20 day
Pichia kudriavzevii [12] = assay: Antifungal activity against Candida krusei 629; type: functional
Candida albicans [13] = assay: Antifungal activity against Candida albicans 162; type: functional
[14] = target: T1, Lanosterol 14-alpha demethylase (Candida albicans (strain SC5314 / ATCC MYA-2876) (Yeast), UniProt P10613); assay: Inhibition of CYP51 in Candida albicans SC5314 assessed as lanosterol level at 0.5 ug/ml measured after 12 hrs by GC-MS analysis (reference value: 2.18%); design: scale not given: the % may be the effect or the level left; conditions: at 0.5 µg/mL
T1 sequence (P10613 whole entry): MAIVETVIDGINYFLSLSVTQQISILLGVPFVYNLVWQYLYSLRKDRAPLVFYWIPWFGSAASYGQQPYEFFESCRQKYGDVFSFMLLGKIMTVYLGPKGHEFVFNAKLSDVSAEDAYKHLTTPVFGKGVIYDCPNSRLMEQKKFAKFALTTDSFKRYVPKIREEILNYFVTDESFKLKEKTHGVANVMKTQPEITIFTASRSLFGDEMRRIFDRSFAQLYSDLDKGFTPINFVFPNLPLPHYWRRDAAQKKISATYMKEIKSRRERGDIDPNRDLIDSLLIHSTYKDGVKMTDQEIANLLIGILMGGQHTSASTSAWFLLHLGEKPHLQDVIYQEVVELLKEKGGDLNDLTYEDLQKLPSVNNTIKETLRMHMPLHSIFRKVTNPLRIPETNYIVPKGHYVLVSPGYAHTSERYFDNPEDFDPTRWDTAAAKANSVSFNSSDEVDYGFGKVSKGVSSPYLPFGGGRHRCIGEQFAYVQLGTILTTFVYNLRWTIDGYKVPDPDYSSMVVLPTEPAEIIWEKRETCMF

[15] = Induction of drug resistance in Candida albicans SC5314 assessed as increase in MIC after 2 weeks (reference value: 0.5 microg/ml); type: functional; conditions: SC5314, 336 h
Cryptococcus neoformans [16] = assay: Antifungal activity against Cryptococcus neoformans H99 incubated for 72 hrs by microbroth dilution method; type: functional
Pichia kudriavzevii [17] = assay: Antifungal activity against Candida krusei 463; type: functional
Candida albicans [18] = assay: Antifungal activity against Candida albicans 14#; type: functional
Candida tropicalis [19] = assay: Antifungal activity against Candida tropicalis ATCC750; type: functional
Candida albicans [20] = assay: Antifungal activity against Candida albicans Y0109; type: functional
[21] = target: T1, Lanosterol 14-alpha demethylase; assay: Inhibition of CYP51 in Candida albicans SC5314 assessed as eburicol level at 4 ug/ml measured after 12 hrs by GC-MS analysis (reference value: 0.00%); design: scale not given: the % may be the effect or the level left; conditions: at 4 µg/mL
[22] = target: T1, Lanosterol 14-alpha demethylase; assay: Inhibition of CYP51 in Candida albicans SC5314 assessed as lanosterol level at 4 ug/ml measured after 12 hrs by GC-MS analysis (reference value: 2.18%); design: scale not given: the % may be the effect or the level left; conditions: at 4 µg/mL
Candida albicans [23] = assay: Antifungal activity against Candida albicans 305; type: functional
Cryptococcus neoformans [24] = assay: Antifungal activity against Cryptococcus neoformans 32605; type: functional
Aspergillus fumigatus = assay: Antifungal activity against Aspergillus fumigatus 7544 incubated for 48 hrs by microbroth dilution method; type: functional
Candida tropicalis [25] = assay: Antifungal activity against Candida tropicalis 112936; type: functional
Candida albicans [26] = assay: Antifungal activity against Candida albicans SC5314 incubated for 24 hrs by microbroth dilution method; type: functional
Candida albicans [27] = assay: Antifungal activity against Candida albicans 100 infected in ICR mouse assessed as median survival time at 0.25 mg/kg, po qd infected with fungus for 2 hrs prior to compound addition for 7 days and measured for 20 days; type: functional; conditions: time 20 day
Candida albicans [28] = assay: Antifungal activity against Candida albicans 12#; type: functional
Pichia kudriavzevii [29] = assay: Antifungal activity against Candida krusei 397; type: functional
Candida parapsilosis [30] = assay: Antifungal activity against Candida parapsilosis 22019; type: functional; conditions: Lodderomyces parapsilosis
[31] = target: T1, Lanosterol 14-alpha demethylase; assay: Inhibition of CYP51 in Candida albicans SC5314 assessed as ergosterol level at 4 ug/ml measured after 12 hrs by GC-MS analysis (reference value: 72.58%); design: scale not given: the % may be the effect or the level left; conditions: at 4 µg/mL
Candida albicans [32] = assay: Antifungal activity against Candida albicans 28#; type: functional
Candida albicans [33] = assay: Antifungal activity against Candida albicans 100 infected in ICR mouse assessed as delay in mortality at 0.25 mg/kg, po qd infected with fungus for 2 hrs prior to compound addition for 7 days and measured for 20 days; type: functional, organism-based; conditions: time 20.0 day
[Candida] auris [34] = Antifungal activity against Candida auris D12; type: functional; conditions: Candidozyma auris
[35] = target: T1, Lanosterol 14-alpha demethylase; assay: Inhibition of CYP51 in Candida albicans SC5314 assessed as sterol level at 4 ug/ml measured after 12 hrs by GC-MS analysis (reference value: 25.23%); design: scale not given: the % may be the effect or the level left; conditions: at 4 µg/mL
Candida albicans [36] = assay: Antifungal activity against Candida albicans SC5314 infected in ICR mouse assessed as delay in mortality at 0.5 mg/kg, po qd infected with fungus for 2 hrs prior to compound addition for 7 days and measured for 20 days; type: functional, organism-based; conditions: time 20.0 day
Cryptococcus neoformans [37] = assay: Antifungal activity against Cryptococcus neoformans H99 infected in ICR mouse assessed as delay in mortality at 2 mg/kg, po qd infected with fungus for 2 hrs prior to compound addition for 7 days and measured for 20 days; type: functional, organism-based; conditions: time 20.0 day
[38] = target: T1, Lanosterol 14-alpha demethylase; assay: Inhibition of CYP51 in Candida albicans SC5314 assessed as sterol level at 0.5 ug/ml measured after 12 hrs by GC-MS analysis (reference value: 25.23%); design: scale not given: the % may be the effect or the level left; conditions: at 0.5 µg/mL
[Candida] auris [39] = Antifungal activity against Candida auris BS12372; type: functional; conditions: Candidozyma auris
[Candida] auris [40] = Antifungal activity against Candida auris 791; type: functional; conditions: Candidozyma auris
[41] = target: T1, Lanosterol 14-alpha demethylase; assay: Inhibition of CYP51 in Candida albicans SC5314 assessed as eburicol level at 0.5 ug/ml measured after 12 hrs by GC-MS analysis (reference value: 0.00%); design: scale not given: the % may be the effect or the level left; conditions: at 0.5 µg/mL
[Candida] auris [42] = Antifungal activity against Candida auris 887; type: functional; conditions: Candidozyma auris
Candida parapsilosis [43] = assay: Antifungal activity against Candida parapsilosis 700; type: functional; conditions: Lodderomyces parapsilosis
Pichia kudriavzevii [44] = assay: Antifungal activity against Candida krusei 467; type: functional
[45] = Induction of drug resistance in Candida albicans SC5314 assessed as increase in MIC after 26 days; type: functional; conditions: SC5314, 624 h, time 26 day
Candida albicans [46] = assay: Antifungal activity against Candida albicans 25#; type: functional

With C[C@@H]1[C@H](O)[C@@H](C)/C=C/C=C/C=C/C=C/C=C/C=C/C=C/[C@H](O[C@@H]2O[C@H](C)[C@@H](O)[C@H](N)[C@@H]2O)C[C@@H]2O[C@](O)(C[C@@H](O)C[C@@H](O)[C@H](O)CC[C@@H](O)C[C@@H](O)CC(=O)O[C@H]1C)C[C@H](O)[C@H]2C(=O)O [AMPHOTERICIN B] as the molecule, how does the hemolysis at 1 h, 16 ug/ml [1] read?
Its hemolysis at 1 h, 16 ug/ml is 24.7%.

And the hemolysis at 1 h, 32 ug/ml [2]?
Its hemolysis at 1 h, 32 ug/ml is 65.2%.

What about the viability at 24 h, 64 ug/ml [3] of the same molecule?
Its viability at 24 h, 64 ug/ml is 78.2%.

And the hemolysis at 1 h, 64 ug/ml [4]?
The hemolysis at 1 h, 64 ug/ml was 102%.

What about the viability at 24 h, 64 ug/ml (in vitro) of the same molecule?
Its viability at 24 h, 64 ug/ml is 63.3%.

For OC(Cn1cncn1)(Cn1cncn1)c1ccc(F)cc1F [FLUCONAZOLE], which MIC (Candida albicans [5]) is on record?
Its MIC is 0.5 µg/mL (≈ 1.63 µM).

What about the MIC (Nannizzia gypsea) of the same molecule?
Its MIC is 32 µg/mL (≈ 104 µM).

And the MIC (Candida parapsilosis [6])?
Its MIC is 0.5 µg/mL (≈ 1.63 µM).

What about the MIC (Nakaseomyces glabratus [7]) of the same molecule?
The MIC was 2 µg/mL (≈ 6.53 µM).

And the MIC (Candida parapsilosis [8])?
The MIC was 0.5 µg/mL (≈ 1.63 µM).

And the MIC (Trichophyton rubrum)?
The MIC was 8 µg/mL (≈ 26.1 µM).

And the Time (Cryptococcus neoformans [9])?
Its Time is 8.5 days.

What about the MIC (Nakaseomyces glabratus [10]) of the same molecule?
Its MIC is 2 µg/mL (≈ 6.53 µM).

What about the Time (Candida albicans [11]) of the same molecule?
Its Time is 14 days.

And the MIC (Pichia kudriavzevii [12])?
The MIC was 4 µg/mL (≈ 13.1 µM).

What about the MIC (Candida albicans [13]) of the same molecule?
The MIC was over 64 µg/mL.

What about the Activity [14] of the same molecule?
Its Activity is 18.14%.

What about the MIC [15] of the same molecule?
The MIC was 4 µg/mL.

What about the MIC (Cryptococcus neoformans [16]) of the same molecule?
The MIC was 0.5 µg/mL (≈ 1.63 µM).

What about the MIC (Pichia kudriavzevii [17]) of the same molecule?
The MIC was 4 µg/mL (≈ 13.1 µM).

What about the MIC (Candida albicans [18]) of the same molecule?
Its MIC is over 64 µg/mL.

And the MIC (Candida tropicalis [19])?
Its MIC is over 64 µg/mL.

What about the MIC (Candida albicans [20]) of the same molecule?
Its MIC is 0.25 µg/mL (≈ 0.816 µM).

What about the Activity [21] of the same molecule?
The Activity was 87.88%.

And the Activity [22]?
The Activity was 5.73%.

And the MIC (Candida albicans [23])?
Its MIC is over 64 µg/mL.

What about the MIC (Cryptococcus neoformans [24]) of the same molecule?
The MIC was 0.5 µg/mL (≈ 1.63 µM).

What about the MIC (Aspergillus fumigatus) of the same molecule?
Its MIC is over 64 µg/mL.

And the MIC (Candida tropicalis [25])?
The MIC was over 64 µg/mL.

And the MIC (Candida albicans [26])?
The MIC was 0.5 µg/mL (≈ 1.63 µM).

What about the Time (Candida albicans [27]) of the same molecule?
Its Time is 8.5 days.

What about the MIC (Candida albicans [28]) of the same molecule?
Its MIC is over 64 µg/mL.

And the viability at 24 h, 64 ug/ml [3]?
The viability at 24 h, 64 ug/ml was 88.4%.

And the MIC (Pichia kudriavzevii [29])?
The MIC was 2 µg/mL (≈ 6.53 µM).

What about the MIC (Candida parapsilosis [30]) of the same molecule?
Its MIC is 2 µg/mL (≈ 6.53 µM).

What about the Activity [31] of the same molecule?
The Activity was 0.62%.

What about the MIC (Candida albicans [32]) of the same molecule?
Its MIC is 2 µg/mL (≈ 6.53 µM).

What about the Activity (Candida albicans [33]) of the same molecule?
Its Activity is “Active”.

And the hemolysis at 1 h, 64 ug/ml [4]?
The hemolysis at 1 h, 64 ug/ml was 1.01%.

And the MIC ([Candida] auris [34])?
Its MIC is over 64 µg/mL.

What about the Activity [35] of the same molecule?
The Activity was 5.77%.

What about the Activity (Candida albicans [36]) of the same molecule?
Its Activity is “Active”.

And the Activity (Cryptococcus neoformans [37])?
Its Activity is “Active”.

And the Activity [38]?
Its Activity is 4.69%.

What about the MIC ([Candida] auris [39]) of the same molecule?
Its MIC is over 64 µg/mL.

And the MIC ([Candida] auris [40])?
Its MIC is over 64 µg/mL.

What about the Activity [41] of the same molecule?
The Activity was 2.61%.

What about the MIC ([Candida] auris [42]) of the same molecule?
Its MIC is over 64 µg/mL.

What about the MIC (Candida parapsilosis [43]) of the same molecule?
Its MIC is 2 µg/mL (≈ 6.53 µM).

What about the MIC (Pichia kudriavzevii [44]) of the same molecule?
The MIC was 4 µg/mL (≈ 13.1 µM).

And the MIC [45]?
The MIC was 16 µg/mL.

And the viability at 24 h, 64 ug/ml (in vitro)?
The viability at 24 h, 64 ug/ml was 101%.

And the MIC (Candida albicans [46])?
Its MIC is over 64 µg/mL.
